Like-named read-outs stand apart in the source and are kept apart here.
Legend:
Type in all cases: cell-based
[1] = test system: Primary human preadipocytes; assay: LDH release cytotoxicity assay (CytoTox-ONE) in undifferentiated preadipocytes
Method: (§1) Primary human preadipocytes were obtained from Promocell (Heidelberg, Germany). The Order No is C-12731 and the Lot-No 5112201 (abdomen, person).
Human preadipocytes cells were maintained in Preadipocyte Growth Medium (DMEM; BioWhitaker Cat: BE12-604F/U1; Lot N° 6MB0130 containing 10% heat-inactivated FCS and 1% penicillin-streptomycin) at 37° C. in a humidified atmosphere of 5% CO2. The cells were expanded in several T75 flasks to reach 60-80% confluence. To differentiate the preadipocytes (10^4 cells/well) were grown in 96 well plates to reach confluence. At this point (day 0), cells were switched to differentiation medium (DMEM, 10% FBS, 0.25 μM dexamethasone, 0.25 mM IBMX, and […] insulin) for 3 days, with one medium change in between. On day 3, the dexamethasone and IBMX was removed leaving insulin on the cells for an additional 4 days, changing the medium every 2 days. Thereafter, the cells were maintained in the original propagation DMEM, changing medium every 2-3 days until use. Plates where cells are >75% differentiated were used for experiments (day 10 post-induction). […]
Cytotoxicity assays: The CytoTox-ONE™ Homogeneous Membrane Integrity Assay from Promega was used to study LDH release (The Lot-No 234242/27/09/08). Differentiated adipocytes were treated with the test compounds for either 24 or 48 hours and the release of LDH detected using the fluorimetric assay CytoTox-ONE (see above) according to the manufacturer's instructions. Maximum LDH release was determined by complete lysis of cells using 0.1% Triton X-100. […] The fluorescence was detected in a Genius Pro apparatus using specific 96 microwells plates for fluorescence. […]
(§2) The percentages cytotoxicity by LDH release were calculated according to the manufacturer's instruction (http://www.promega.com/tbs/tb306/tb306.pdf)
(§3) According to this calculation the spontaneous release in untreated cells may indicate some cytotoxicity in untreated cells. […] This type of calculation may induce to misinterpretations and therefore the specific cytotoxicity was calculated according to the following formula: […]

[2] = test system: differentiated human primary adipocytes; assay: LDH release cytotoxicity assay (CytoTox-ONE) in differentiated adipocytes
Method: as §1
Human preadipocytes cells were maintained in Preadipocyte Growth Medium (DMEM; BioWhitaker Cat: BE12-604F/U1; Lot N° 6MB0130 containing 10% heat-inactivated FCS and 1% penicillin-streptomycin) at 37° C. in a humidified atmosphere of 5% CO2. The cells were expanded in several T75 flasks to reach 60-80% confluence. To differentiate the preadipocytes (10^4 cells/well) were grown in 96 well plates to reach confluence. At this point (day 0), cells were switched to differentiation medium (DMEM, 10% FBS, 0.25 μM dexamethasone, 0.25 mM IBMX, and […] insulin) for 3 days, with one medium change in between. On day 3, the dexamethasone and IBMX was removed leaving insulin on the cells for an additional 4 days, changing the medium every 2 days. Thereafter, the cells were maintained in the original propagation DMEM, changing medium every 2-3 days until use. Plates where cells are >75% differentiated were used for experiments (day 10 post-induction). Adipocytes are round and full of easily distinguishable fat globules after 7 days of culture.
Cytotoxicity assays: The CytoTox-ONE™ Homogeneous Membrane Integrity Assay from Promega was used to study LDH release (The Lot-No 234242/27/09/08). Differentiated adipocytes were treated with the test compounds for either 24 or 48 hours and the release of LDH detected using the fluorimetric assay CytoTox-ONE (see above) according to the manufacturer's instructions. Maximum LDH release was determined by complete lysis of cells using 0.1% Triton X-100. Control cells treated with water alone were used to determine the baseline level of LDH release (0% cell death). The fluorescence was detected in a Genius Pro apparatus using specific 96 microwells plates for fluorescence. We used excitation filters in the 530-570 nm range and emission filters in the 580-620 nm range.
as §2, §3
S.C. values below 0% were considered arbitrary as 0% of substance-induced cytotoxicity.
To confirm the cytotoxic activity of the test substance at certain concentrations, undifferentiated (24 h treatment) and differentiated human primary adipocytes the cultures were treated with the indicated dilutions during 24 h and 48 h and the release of LDH measured in the supernatants.

[3] = test system: Adipocytes (method: 3T3-L1 adherent cells); assay: Calcein-AM cytotoxicity / cell viability assay
Method: Cytotoxicity Assay in Adherent Cells (3T3-L1) using the Calcein-AM Method:
[…] […] […] Then, the wells were washed and the cells incubated with Calcein-AM (1 μM) (Molecular Probes) for 30 min. Then the fluorescence of viable cells was detected in a microtitre plate reader (TECAN Genius Pro). Using this method the uptake of Calcein-AM by viable cells is measured. Calcein-AM his hydrolysed by cellular esterases and then the fluorescence emitted by calcein is detected in the plate reader (excitation: 490 nm, emission: 515 nm)
[…] In this type of assay the higher RFU (relative fluorescent unit) correspond to viable cells.

[4] = Table 2, dilution 1:12800, 24 h

| Molecule | Adipocytes (LDH) 24 h, toxicity ([2]; Table 2, dilution 1:50, 24 h) | Adipocytes (LDH) 24 h, toxicity ([2]; Table 2, dilution 1:100, 24 h) | Adipocytes (LDH) 24 h, toxicity ([2]; Table 2, dilution 1:200, 24 h) | Adipocytes (LDH) 24 h, toxicity ([2]; Table 2, dilution 1:800, 24 h) | Adipocytes (LDH) 24 h, toxicity ([2]; Table 2, dilution 1:1600, 24 h) | Adipocytes (LDH) 24 h, toxicity ([2]; Table 2, dilution 1:3200, 24 h) | Adipocytes (LDH) 24 h, toxicity ([2]; Table 2, dilution 1:6400, 24 h) | Adipocytes (LDH) 24 h, toxicity [2, 4] | Adipocytes (Calcein-AM) 24 h, toxicity ([3]; dilution 1:50) | Adipocytes (Calcein-AM) 24 h, toxicity ([3]; dilution 1:100) | Adipocytes (Calcein-AM) 24 h, toxicity ([3]; dilution 1:200) | Adipocytes (Calcein-AM) 24 h, toxicity ([3]; dilution 1:400) | Adipocytes (Calcein-AM) 24 h, toxicity ([3]; dilution 1:6400) | Adipocytes (Calcein-AM) 24 h, toxicity ([3]; dilution 1:12800) | further results |
| --- | --- | --- | --- | --- | --- | --- | --- | --- | --- | --- | --- | --- | --- | --- | --- |
| polyethoxylated castor oil [Test Substance 2] | Toxic | Toxic | Toxic | Non-toxic | Non-toxic | Non-toxic | Non-toxic | Non-toxic | Toxic | Toxic | Toxic | Toxic | Non-toxic | Non-toxic | Preadipocytes (LDH) 24 h, cytotoxicity ([1]; dilution 1:512, 24 h treatment): Toxic (32.6%); Preadipocytes (LDH) 24 h, toxicity ([1]; dilution 1:10000, 24 h treatment): Non-toxic; Differentiated Adipocytes (LDH) 24 h, cytotoxicity ([2]; Table 1, dilution 1:512, 24 h): Toxic (56.1%); Differentiated Adipocytes (LDH) 24 h, toxicity ([2]; Table 1, dilution 1:10000, 24 h): Non-toxic; Adipocytes (LDH) 24 h, cytotoxicity ([2]; Table 2, dilution 1:400, 24 h): Toxic (43.6%); Differentiated Adipocytes (LDH) 48 h, cytotoxicity ([2]; dilution 1:512, 48 h): Toxic (100%); Differentiated Adipocytes (LDH) 48 h, cytotoxicity ([2]; dilution 1:10000, 48 h): toxic (20.3%) |
| CCCCCCCCCCCCOS(=O)(=O)[O-].[Na+] [sodium laurylsulfate] |  |  |  |  |  |  |  |  |  |  |  |  |  |  | potency compared with the other inventive substances ([3]; cytotoxicity on adipocytes): even more potent; Adipocytes (Calcein-AM) 6 h, toxicity ([3]; dilution 1:4000): Toxic; Adipocytes (Calcein-AM) 24 h, toxicity ([3]; dilution 1:4000): Toxic; Adipocytes (Calcein-AM) 6 h, toxicity ([3]; dilution 1:16,000): Toxic; Adipocytes (Calcein-AM) 24 h, toxicity ([3]; dilution 1:16,000): Toxic; Adipocytes (Calcein-AM) 6 h, toxicity ([3]; dilution 1:512000): Non-Toxic; Adipocytes (Calcein-AM) 24 h, toxicity ([3]; dilution 1:512000): Non-Toxic |
| polysorbate 80 [Test Substance 1] | Toxic | Toxic | Toxic | Toxic | Non-toxic | Non-toxic | Non-toxic | Non-toxic | Toxic | Toxic | Toxic | Toxic | Non-toxic | Non-toxic | Preadipocytes (LDH) 24 h, cytotoxicity [1]: Toxic (38.1%); Differentiated Adipocytes (LDH) 24 h, cytotoxicity [2]: Toxic (42.8%); Differentiated Adipocytes (LDH) 48 h, cytotoxicity [2]: Toxic (100%); Adipocytes (LDH) 24 h, toxicity ([2]; Table 2, dilution 1:400, 24 h): Toxic; Adipocytes (Calcein-AM) 24 h, toxicity ([3]; dilution 1:800): Toxic; Adipocytes (Calcein-AM) 24 h, toxicity ([3]; dilution 1:3200): Non-toxic |
